From PMC11897524 (Frontiers in Pharmacology, 2025)

What was measured:
EPHA4 = EPHA4 (Homo sapiens, UniProt P54764); test: SelectScreen Z′-LYTE kinase assay; type: biochemical
How it was run: (§1)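 The compound was diluted 3-fold across 10 concentrations starting at 50 µM, then mixed with kinase and ATP. After a 60 min room-temperature reaction, developing reagent was added for 1 h and fluorescence read. Inhibition rates and IC50 were obtained from curve fits.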

FGR = FGR (Homo sapiens, UniProt P09769); test: SelectScreen Z′-LYTE kinase assay; type: biochemical
Sequence of FGR (P09769 whole entry): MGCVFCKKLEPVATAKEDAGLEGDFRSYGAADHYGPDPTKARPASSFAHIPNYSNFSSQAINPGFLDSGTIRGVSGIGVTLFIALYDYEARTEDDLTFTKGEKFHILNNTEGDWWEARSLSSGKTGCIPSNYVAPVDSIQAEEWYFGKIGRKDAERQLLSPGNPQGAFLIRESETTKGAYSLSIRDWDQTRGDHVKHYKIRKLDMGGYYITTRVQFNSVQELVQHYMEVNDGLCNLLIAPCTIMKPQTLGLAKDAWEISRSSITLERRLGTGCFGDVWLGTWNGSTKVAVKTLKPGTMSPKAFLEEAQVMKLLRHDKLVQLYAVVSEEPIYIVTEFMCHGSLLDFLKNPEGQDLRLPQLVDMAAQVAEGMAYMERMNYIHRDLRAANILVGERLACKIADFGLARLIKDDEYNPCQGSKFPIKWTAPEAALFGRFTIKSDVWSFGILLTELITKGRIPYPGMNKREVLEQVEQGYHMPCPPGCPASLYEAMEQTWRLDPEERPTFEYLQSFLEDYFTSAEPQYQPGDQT
How it was run: as §1

JAK1 = JAK1 (Homo sapiens, UniProt P23458); test: SelectScreen Z′-LYTE kinase assay; type: biochemical
How it was run: as §1

BRD2 [1] = biological target: T1, BRD2 (Homo sapiens, UniProt P25440); test: Inhibitory effect on BET and STAT family members; type: binding
T1 sequence (P25440 whole entry): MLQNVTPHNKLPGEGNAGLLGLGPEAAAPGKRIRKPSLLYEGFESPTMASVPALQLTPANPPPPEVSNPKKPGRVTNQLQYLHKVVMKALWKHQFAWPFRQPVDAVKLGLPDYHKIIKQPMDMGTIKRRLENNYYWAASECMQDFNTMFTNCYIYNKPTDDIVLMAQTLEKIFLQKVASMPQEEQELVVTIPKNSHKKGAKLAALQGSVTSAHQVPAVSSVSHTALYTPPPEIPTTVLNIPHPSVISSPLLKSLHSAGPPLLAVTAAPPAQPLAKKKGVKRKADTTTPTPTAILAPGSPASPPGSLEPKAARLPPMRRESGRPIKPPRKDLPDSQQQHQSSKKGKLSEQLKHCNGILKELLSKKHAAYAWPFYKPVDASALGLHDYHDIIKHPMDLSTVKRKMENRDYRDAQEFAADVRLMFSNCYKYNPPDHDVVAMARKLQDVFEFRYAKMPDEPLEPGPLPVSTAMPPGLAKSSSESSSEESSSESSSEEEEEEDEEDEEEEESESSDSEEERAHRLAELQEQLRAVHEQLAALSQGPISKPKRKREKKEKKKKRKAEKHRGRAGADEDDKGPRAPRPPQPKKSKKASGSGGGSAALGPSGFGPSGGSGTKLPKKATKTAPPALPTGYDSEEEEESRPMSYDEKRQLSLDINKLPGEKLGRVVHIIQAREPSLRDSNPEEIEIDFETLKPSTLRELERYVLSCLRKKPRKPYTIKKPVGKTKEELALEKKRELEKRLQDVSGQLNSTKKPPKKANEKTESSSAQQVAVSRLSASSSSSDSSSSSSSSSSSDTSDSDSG
Excerpt: (§2) TABLE 4 The inhibitory effect of BST-4 on other members of the BET and STAT families. | column: IC50 (μM)

BRD3 [2] = biological target: T2, BRD3 (Homo sapiens, UniProt Q15059); test: Inhibitory effect on BET and STAT family members; type: binding
T2 sequence (Q15059 whole entry): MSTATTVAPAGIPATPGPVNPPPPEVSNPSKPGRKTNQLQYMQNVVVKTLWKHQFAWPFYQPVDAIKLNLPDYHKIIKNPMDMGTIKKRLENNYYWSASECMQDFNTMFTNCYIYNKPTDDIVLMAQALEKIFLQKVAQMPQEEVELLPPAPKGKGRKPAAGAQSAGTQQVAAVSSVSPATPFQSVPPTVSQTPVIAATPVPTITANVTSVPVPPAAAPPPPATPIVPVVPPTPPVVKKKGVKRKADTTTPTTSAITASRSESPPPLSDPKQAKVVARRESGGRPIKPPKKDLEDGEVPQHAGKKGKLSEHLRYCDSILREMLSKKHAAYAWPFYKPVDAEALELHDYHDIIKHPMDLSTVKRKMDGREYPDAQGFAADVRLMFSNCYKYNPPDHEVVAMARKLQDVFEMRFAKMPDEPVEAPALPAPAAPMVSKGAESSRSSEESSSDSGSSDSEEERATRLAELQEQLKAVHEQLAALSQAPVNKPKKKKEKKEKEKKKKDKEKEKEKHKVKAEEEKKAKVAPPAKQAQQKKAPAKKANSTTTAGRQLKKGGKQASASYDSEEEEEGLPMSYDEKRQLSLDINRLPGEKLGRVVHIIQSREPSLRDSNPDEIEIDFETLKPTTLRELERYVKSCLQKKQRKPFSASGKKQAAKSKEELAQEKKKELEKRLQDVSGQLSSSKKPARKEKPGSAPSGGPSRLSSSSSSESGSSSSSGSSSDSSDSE
Excerpt: as §2

BRDT = BRDT (Homo sapiens, UniProt Q58F21); test: Inhibitory effect on BET and STAT family members; type: binding
Excerpt: as §2

STAT1 [3] = biological target: T3, STAT1 (Homo sapiens, UniProt P42224); test: Inhibitory effect on BET and STAT family members; type: binding
T3 sequence (P42224 whole entry): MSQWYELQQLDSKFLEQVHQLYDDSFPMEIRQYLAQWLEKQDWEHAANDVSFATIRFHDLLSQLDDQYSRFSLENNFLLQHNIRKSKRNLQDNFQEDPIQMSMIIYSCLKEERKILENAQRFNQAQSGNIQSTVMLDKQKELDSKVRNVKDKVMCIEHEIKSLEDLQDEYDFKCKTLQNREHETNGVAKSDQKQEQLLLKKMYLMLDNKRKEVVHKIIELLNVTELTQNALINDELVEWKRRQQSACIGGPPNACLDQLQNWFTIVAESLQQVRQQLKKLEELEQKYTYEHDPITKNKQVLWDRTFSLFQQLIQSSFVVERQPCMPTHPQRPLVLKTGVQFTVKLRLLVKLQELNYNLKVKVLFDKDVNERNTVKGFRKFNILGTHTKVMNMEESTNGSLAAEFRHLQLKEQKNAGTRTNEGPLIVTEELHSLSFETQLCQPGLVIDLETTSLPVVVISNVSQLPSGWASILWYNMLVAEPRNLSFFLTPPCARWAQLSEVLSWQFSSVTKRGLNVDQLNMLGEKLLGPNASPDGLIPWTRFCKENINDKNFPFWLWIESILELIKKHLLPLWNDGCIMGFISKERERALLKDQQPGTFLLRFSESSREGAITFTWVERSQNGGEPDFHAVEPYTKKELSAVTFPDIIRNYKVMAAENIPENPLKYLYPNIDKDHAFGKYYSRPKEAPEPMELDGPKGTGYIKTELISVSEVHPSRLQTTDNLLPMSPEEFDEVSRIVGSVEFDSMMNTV
Excerpt: as §2

STAT2 = STAT2 (Homo sapiens, UniProt P52630); test: Inhibitory effect on BET and STAT family members; type: binding
Excerpt: as §2

STAT4 = STAT4 (Homo sapiens, UniProt Q14765); test: Inhibitory effect on BET and STAT family members; type: binding
Excerpt: as §2

STAT5a [4] = biological target: T4, STAT5a (Homo sapiens, UniProt P42229); test: Inhibitory effect on BET and STAT family members; type: binding
T4 sequence (P42229 whole entry): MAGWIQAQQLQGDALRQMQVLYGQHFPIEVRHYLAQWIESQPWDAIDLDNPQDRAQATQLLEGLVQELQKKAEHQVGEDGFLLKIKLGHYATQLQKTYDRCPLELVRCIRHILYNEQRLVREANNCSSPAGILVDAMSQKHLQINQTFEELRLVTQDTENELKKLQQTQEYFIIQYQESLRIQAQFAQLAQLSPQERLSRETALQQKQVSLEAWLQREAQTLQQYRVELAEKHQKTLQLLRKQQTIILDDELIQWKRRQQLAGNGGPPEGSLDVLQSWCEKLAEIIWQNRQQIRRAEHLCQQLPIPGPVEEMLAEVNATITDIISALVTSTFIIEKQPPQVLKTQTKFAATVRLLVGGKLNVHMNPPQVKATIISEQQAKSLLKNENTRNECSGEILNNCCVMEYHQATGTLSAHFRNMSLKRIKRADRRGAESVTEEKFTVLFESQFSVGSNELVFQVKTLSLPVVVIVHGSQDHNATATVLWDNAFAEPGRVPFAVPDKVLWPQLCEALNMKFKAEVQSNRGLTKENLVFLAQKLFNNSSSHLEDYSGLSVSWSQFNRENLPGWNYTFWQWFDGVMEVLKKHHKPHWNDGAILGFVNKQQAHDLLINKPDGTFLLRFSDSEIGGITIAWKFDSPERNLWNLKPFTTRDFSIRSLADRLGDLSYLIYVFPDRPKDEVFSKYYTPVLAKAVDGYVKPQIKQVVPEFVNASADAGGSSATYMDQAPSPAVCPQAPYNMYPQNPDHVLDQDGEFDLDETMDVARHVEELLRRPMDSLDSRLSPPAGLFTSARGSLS
Excerpt: as §2

STAT5b = STAT5b (Homo sapiens, UniProt P51692); test: Inhibitory effect on BET and STAT family members; type: binding
Excerpt: as §2

STAT6 = STAT6 (Homo sapiens, UniProt P42226); test: Inhibitory effect on BET and STAT family members; type: binding
Excerpt: as §2

BRD2 [5] = biological target: T1, BRD2; test: Binding affinity to BET and STAT family members
BRD3 [6] = biological target: T2, BRD3; test: Binding affinity to BET and STAT family members
STAT1 [7] = biological target: T3, STAT1; test: Binding affinity to BET and STAT family members
STAT5a [8] = biological target: T4, STAT5a; test: Binding affinity to BET and STAT family members
CAKI-2 cells = test: MTT cytotoxicity assay; type: cell-based, human
Experimental: Human normal renal cortical proximal tubular epithelial cell line HK-2 and human renal carcinoma cell lines CAKI-2, SLR-23, 769-P, A704 and RCC4 were previously purchased from the American Type Culture Collection (ATCC, Manassas, VA, USA) or the European Collection of Cell Cultures (ECACC, Salisbury, United Kingdom). HK2, A704, and RCC4 cells were maintained in high glucose DMEM supplemented with 10% FBS and 1% penicillin/streptomycin. SLR-23 and […] cells were cultured in RPMI-1640 medium with 10% FBS and 1% penicillin/streptomycin. CAKI-2 cells were maintained in McCoy’s 5A medium supplemented with 10% FBS and 1% penicillin/streptomycin. All the cell lines were cultured at 37°C in a humidified atmosphere of 5% CO2 and 95% air.
(§3) The effect of hit compounds on cytotoxicity was determined as previously reported ([Ding et al., 2020]). In brief, cells treated with the tested compounds were added with MTT reagent to form formazan crystals, and then the optical density (OD) values at 570 nm were determined after the crystals were dissolved in DMSO. […] Next, the values of IC50 of the selected compounds against more RCC cell lines were determined. The 5 × 10^3 cells in 100 μL culture medium were injected into each well of a 96-well plate and cultured overnight. Add different concentrations of compounds and incubate for 48 h. Then 100 μL of MTT (0.5 mg/mL) solution was added to the 96-well plate and maintained at 37°C for 4 h. Finally, 200 μL of DMSO was added and shaken for 10 min. The OD values at 570 nm were determined by a Synergy 4 microplate reader.

PBMCs = test: MTT cytotoxicity assay; type: cell-based; conditions: PBMC, 48 h treatment, read-out: IC50 (μM) ± SD PBMCs
Experimental: as §3

STAT3 phosphorylation = test: Western blot of phosphorylated STAT3 in CAKI-2 cells; type: cell-based, human; conditions: 100 nM, 24 h
Experimental: For the assessment of protein expression levels, Western blot analysis was conducted following a standardized protocol ([Zhou et al., 2022]). The CAKI-2 cells were initially rinsed with PBS to remove any residual culture medium. Subsequently, cells were lysed using a RIPA buffer supplemented with 1 mM phenylmethylsulfonyl fluoride (PMSF), and the lysate was incubated on ice for a duration of 1 h. The lysate was centrifuged at a speed of 13,000 rpm for 30 min at 4°C. Protein concentrations were quantified using a BCA protein assay kit (Beyotime, Shanghai, China), ensuring equal protein loading for each sample. Samples were then resolved by SDS-PAGE and transferred onto a polyvinylidene difluoride (PVDF) membrane. Subsequently, the membrane was blocked with 3% BSA in PBS at room temperature for 2 h and incubated overnight with the corresponding antibody at 4°C. After washing to remove unbound primary antibodies, the membrane was incubated with horseradish peroxidase (HRP)-conjugated secondary antibodies for a period of 1 h at room temperature. The specific protein bands were visualized using ECL detection system (Tanon, Shanghai, China), and the band intensities were quantified using ImageJ software.

BRD4 = BRD4 (Homo sapiens, UniProt O60885); test: Microscale thermophoresis (MST) assay; type: binding; design: purchased Abcam
Experimental: The MST experiments were performed using the Monolith NT.115 instrument. BRD4 and STAT3 proteins were labeled with the Lys labeling kit at the final concentration of 100 nM. The compounds, previously suspended in 100% DMSO, were diluted in a buffer containing 20 mM Tris·HCl (pH 7.5), 100 mM NaCl, and 3 mM DTT, achieving a final DMSO concentration of 5%. The compounds were gradient-diluted in 1:1 dilution and starting from 100 μM. The samples were loaded into MST-standard glass capillaries. All the measurements were performed in triplicate using automatically assigned 50% MST power and 20% LED power. Data analysis was performed using GraphPad Prism 7.0 software.

Sequence of EPHA4 (P54764 20-986): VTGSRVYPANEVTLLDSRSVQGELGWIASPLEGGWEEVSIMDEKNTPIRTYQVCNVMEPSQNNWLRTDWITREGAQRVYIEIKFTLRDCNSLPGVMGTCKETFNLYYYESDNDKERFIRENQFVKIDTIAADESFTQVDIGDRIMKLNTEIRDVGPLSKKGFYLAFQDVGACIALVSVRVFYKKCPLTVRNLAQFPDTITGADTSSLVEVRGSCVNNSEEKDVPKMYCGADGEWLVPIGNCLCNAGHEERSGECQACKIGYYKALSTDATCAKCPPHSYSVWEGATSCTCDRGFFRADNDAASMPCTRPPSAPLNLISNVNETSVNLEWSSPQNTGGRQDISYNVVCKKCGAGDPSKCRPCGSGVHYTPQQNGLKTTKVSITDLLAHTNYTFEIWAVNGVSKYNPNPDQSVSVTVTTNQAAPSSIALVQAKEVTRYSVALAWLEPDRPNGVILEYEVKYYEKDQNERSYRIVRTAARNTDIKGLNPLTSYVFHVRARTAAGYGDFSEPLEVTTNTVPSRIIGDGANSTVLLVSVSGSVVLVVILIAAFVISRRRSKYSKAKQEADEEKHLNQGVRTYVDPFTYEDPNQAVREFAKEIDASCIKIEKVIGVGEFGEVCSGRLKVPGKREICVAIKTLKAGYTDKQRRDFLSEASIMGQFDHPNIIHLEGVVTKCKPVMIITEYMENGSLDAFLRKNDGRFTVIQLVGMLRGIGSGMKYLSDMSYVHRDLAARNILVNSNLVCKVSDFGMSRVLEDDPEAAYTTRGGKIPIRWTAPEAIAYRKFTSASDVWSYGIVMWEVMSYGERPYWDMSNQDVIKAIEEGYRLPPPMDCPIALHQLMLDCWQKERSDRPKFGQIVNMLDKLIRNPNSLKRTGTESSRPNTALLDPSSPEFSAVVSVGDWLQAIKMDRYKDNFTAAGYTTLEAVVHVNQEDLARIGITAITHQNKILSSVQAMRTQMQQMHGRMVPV

Structure (SMILES): CCS(=O)(=O)Cc1cnc(Oc2c(F)cc(F)cc2OCCCCOc2ccc(/C=C/c3cc(OC)cc(OC)c3)cc2)c(-c2cc(C)c3c(=O)[nH]ccn23)c1 [BST-4]
- IC50 (EPHA4): > 10 µM
- inhibition at 1 µM (EPHA4): 0.58%
- IC50 (FGR): > 10 µM
- inhibition at 1 µM (FGR): 0.28%
- IC50 (JAK1): > 10 µM
- inhibition at 1 µM (JAK1): 1.21%
- IC50 (BRD2 [1]): > 10 µM
- IC50 (BRD3 [2]): > 10 µM
- IC50 (BRDT): > 10 µM
- IC50 (STAT1 [3]): > 10 µM
- IC50 (STAT2): > 10 µM
- IC50 (STAT4): > 10 µM
- IC50 (STAT5a [4]): > 10 µM
- IC50 (STAT5b): > 10 µM
- IC50 (STAT6): > 10 µM
- Kd (BRD2 [5]): > 10 µM
- Kd (BRD3 [6]): > 10 µM
- Kd (STAT1 [7]): > 10 µM
- Kd (STAT5a [8]): > 10 µM
- IC50 (CAKI-2 cells; Homo sapiens, CAKI-2, cell growth, 48 h treatment, read-out: IC50 (μM) ± SD CAKI-2): 0.76 ± 0.05 µM
- cell inhibitory rate (%) against CAKI-2 cells (CAKI-2 cells; all compounds at the same concentration): more than 95%
- IC50 (PBMCs): > 10 µM
- STAT3 phosphorylation in CAKI-2 cells (STAT3 phosphorylation): significantly decreased
- BRD4 binding affinity relative to RVX-208 (BRD4; Kd ratio vs RVX-208, MST): 17 fold
- Kd (BRD4; MST): 0.00146 ± 7e-05 µM
